In paper PMC6829886, “Inhibition of Non-Small Cell Lung Cancer Cells by Oxy210, an Oxysterol-Derivative that Antagonizes TGFβ and Hedgehog Signaling” (Cells, 2019):

Key:
[1] = tested on: TGFβ induced activity of SBE-luciferase reporter; assay: SBE-luciferase (Smad response-element) reporter assay in NIH3T3-E1 cells; type: cell-based, mouse; conditions: 48 hrs
Method: NIH3T3-E1 cells cultured in 24 well-plates at 90% confluence were transiently transfected with 0.1 μg of Smad response-element reporter (SBE-Luciferase) plasmid (Qiagen), or with 0.1 μg of Gli response-element reporter (pGL3b-8xGli-Luciferase) plasmid, and 10 ng of pSV40-Renilla-Luciferase plasmid (Promega, Madison, WI, USA) with or without co-transfection with 10ng of Gli1 overexpression vector, pSRα-Gli1 using a Lipofectamine LTX Plus transfection reagent, as previously described [23]. […] 6 hrs after transfection, cells were treated with test agents for 72 h. […] Twenty-four hours after transfection, cells were treated with test agents for 20 h. Then the firefly and Renilla luciferase activities were measured using a dual luciferase kit (Promega) and a GloMax-96 Microplate Luminometer (Promega) or a plate reader-SpectraMax iD3 (Molecular Devices, San Jose, CA, USA). The firefly luciferase activities were normalized to the Renilla luciferase activities.
(d) NIH3T3 cells cultured in 24 well-plates were transfected with a Smad response element reporter (SBE-Luciferase) plasmid and a pTK-Renilla-Luciferase plasmid. 6 hrs after transfection, cells were treated with the test agents as indicated for 48 hrs. Luciferase activity was measured and normalized to the Renilla luciferase activity.

[2] = tested on: A549 cells; assay: TGFβ-induced EMT in A549 cells (morphology, Q-RT-PCR); type: cell-based, human
Method: Total RNA was extracted with the RNeasy Plus Mini Kit from Qiagen (Hilden, Germany) according to the manufacturer’s instructions. One microgram of RNA was reverse-transcribed using an iScript Reverse Transcription Supermix from Bio-Rad Laboratories (Hercules, CA, USA) to make single-stranded cDNA. The cDNAs were then mixed with Qi SYBR Green Supermix (Bio-Rad) for quantitative RT-PCR assay using a Bio-Rad I-cycler IQ quantitative thermocycler. All PCR samples were prepared in triplicate wells in a 96-well plate. After 40 cycles of PCR, melt curves were examined in order to ensure primer specificity. Fold changes in gene expression were calculated using the ΔΔCt method. Primers used for mouse were as follows: Oaz1 (5′-CCACTGCTTCGCCAGAGAG-3′) and (5′-CCCGGACCCAGGTTACTA-3′), Gli1 (5′- […]-3′ and 5′- GCT GATCCAGCCTAAGGTTCTC-3′), Ptch1 (5′-CCATCGGCGACAAGAACC-3′ and 5′-[…]-3′), Thbs1 (5′-[…]-3′ and 5′-CGGGGATCAGGTTGGCATT-3′), Cryab (5′-[…]-3′ and 5′-[…]-3′), Egr2 (5′-[…]-3′ and 5′-[…]-3′), CTGF (5′-GGGCCTCTTCTGCGATTTC-3′ and 5′-[…]-3′).
Primers used for human were as follows: GAPDH (5′- […]-3′ and 5′- […]-3′), SHH (5′- CGGAGCGAGGAAGGGAAAG-3′) and (5′- […]-3′), GLI1 (5′- GAAGCCGAGCCGAGTATC-3′ and 5′-[…]-3′), GLI2 (5′-[…]-3′ and 5′-[…]-3′), Fn-EDA (5′- […]-3′ and 5′- […]-3′), E-Cadherin (5′- […]-3′ and 5′- TCCCAGGCGTAGACCAAGA-3′), SNAIL (5′- […]-3′ and 5′- […]-3′), N-Cadherin (5′- […]-3′ and 5′- […]-3′), Vimentin (5′- […]-3′ and 5′- […]-3′), ZO-1 (5′- […]-3′ and 5′- […]-3′), MMP2 (5′- […]-3′ and 5′- […]-3′), MMP9 (5′-[…]-3′ and 5′-[…]).
Figure 8 Inhibition of TGFβ-induced EMT in NSCLC cells. (a) A549 cells were treated with TGFβ in the absence or presence of Oxy210 in RPMI 1640 containing 2% FBS for 5 days. The cells were washed with PBS and then fixed with 2% formaldehyde in PBS at room temperature for 15 min. Formaldehyde was then removed, cells washed with PBS and stained with 4% Trypan Blue for 5 min. Phase contrast images were obtained using a 20X objective lens. A549 (b,c) and H2030 (d) cells were treated in RPMI 1640 containing 0.1% FBS overnight and then pretreated for 2 h with Oxy210 in RPMI 1640 containing 0.1% FBS. Next, cells were treated with TGFβ in the absence or presence of Oxy210. After 48 h, RNA was extracted and analyzed by Q-RT-PCR for the expression of the genes as indicated and normalized to GAPDH expression. Data from a representative experiment are reported as the mean of triplicate determinations ± SD (** p < 0.01 vs. TGFβ treated cells; ## p < 0.01 vs. control).

[3] = tested on: H2030 cells; assay: TGFβ-induced EMT gene expression in H2030 cells; type: cell-based, human; conditions: 48 h
Method: Total RNA was extracted with the RNeasy Plus Mini Kit from Qiagen (Hilden, Germany) according to the manufacturer’s instructions. One microgram of RNA was reverse-transcribed using an iScript Reverse Transcription Supermix from Bio-Rad Laboratories (Hercules, CA, USA) to make single-stranded cDNA. The cDNAs were then mixed with Qi SYBR Green Supermix (Bio-Rad) for quantitative RT-PCR assay using a Bio-Rad I-cycler IQ quantitative thermocycler. All PCR samples were prepared in triplicate wells in a 96-well plate. After 40 cycles of PCR, melt curves were examined in order to ensure primer specificity. Fold changes in gene expression were calculated using the ΔΔCt method. Primers used for mouse were as follows: Oaz1 (5′-CCACTGCTTCGCCAGAGAG-3′) and (5′-CCCGGACCCAGGTTACTA-3′), Gli1 (5′- […]-3′ and 5′- GCT GATCCAGCCTAAGGTTCTC-3′), Ptch1 (5′-CCATCGGCGACAAGAACC-3′ and 5′-[…]-3′), Thbs1 (5′-[…]-3′ and 5′-CGGGGATCAGGTTGGCATT-3′), Cryab (5′-[…]-3′ and 5′-[…]-3′), Egr2 (5′-[…]-3′ and 5′-[…]-3′), CTGF (5′-GGGCCTCTTCTGCGATTTC-3′ and 5′-[…]-3′). […]
Figure 8 Inhibition of TGFβ-induced EMT in NSCLC cells. […] After 48 h, RNA was extracted and analyzed by Q-RT-PCR for the expression of the genes as indicated and normalized to GAPDH expression. […]

[4] = target: T1, Human TGFBR2 (Homo sapiens, UniProt P37173); assay: TGFβ receptor II kinase inhibition assay (Eurofins); type: biochemical; conditions: vs. positive controls Cdk1/2 Inhibitor III and PKR Inhibitor
T1 construct: Human TGFBR2 (amino acid 188-end); purchased Eurofins
T1 sequence (P37173 188-567 limits assumed): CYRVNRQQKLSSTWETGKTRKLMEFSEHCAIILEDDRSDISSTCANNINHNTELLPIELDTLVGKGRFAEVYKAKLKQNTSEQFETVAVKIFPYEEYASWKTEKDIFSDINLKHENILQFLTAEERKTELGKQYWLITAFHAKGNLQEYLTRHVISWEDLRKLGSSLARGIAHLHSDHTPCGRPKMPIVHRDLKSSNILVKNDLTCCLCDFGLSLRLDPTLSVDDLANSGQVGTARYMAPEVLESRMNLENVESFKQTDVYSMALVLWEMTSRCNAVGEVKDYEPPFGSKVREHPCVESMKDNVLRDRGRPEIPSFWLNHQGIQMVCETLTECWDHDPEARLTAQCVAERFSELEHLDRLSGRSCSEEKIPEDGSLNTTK
Method: Effect of Oxy210 on inhibition of TGFβ receptors I and II kinase activity was assessed by Eurofins (Celle-L’Evescault, France). TGFBR1 (h): Human TGFBR1 (amino acid 200 to end) was incubated with 8 mM MOPS pH 7.0, 0.2 mM EDTA, 1 mM MnCl2, 2 mg/mL casein, 10 mM Magnesium acetate and […] (specific activity and concentration as required). The reaction was initiated by the addition of the Mg/ATP mix. After incubation for 40 min at room temperature, the reaction was stopped by the addition of phosphoric acid to a concentration of 0.5%. 10 μL of the reaction was then spotted onto a P30 filtermat and washed four times for 4 min in 0.425% phosphoric acid and once in methanol prior to drying and scintillation counting. TGFBR2 (h): Human TGFBR2 (amino acid 188-end) was incubated with 20 mM Tris/HCl pH 8.5, 0.2 mM EDTA, 0.33 mg/mL MBP, 10 mM Magnesium acetate and [9-33P-ATP] (specific activity and concentration as required). The reaction was initiated by the addition of the Mg/ATP mix. After incubation for 120 min at room temperature, the reaction was stopped by the addition of phosphoric acid to a concentration of 0.5%. […]
Figure 11 Inhibition of TGFβ-induced Smad2/3 phosphorylation and transcriptional activity. […] Luciferase activity was measured and normalized to the Renilla luciferase activity. […]

C[C@]12CC[C@H]3[C@@H](CC=C4C[C@@H](O)CC[C@@]43C)[C@@H]1CC[C@@H]2[C@](C)(O)CCc1cccnc1 [Oxy210, (3S,8S,9S,10R,13S,14S,17S)-17-((R)-2-hydroxy-4-(pyridin-3-yl)butan-2-yl)-10,13-dimethyl-2,3,4,7,8,9,10,11,12,13,14,15,16,17-tetradecahydro-1H-cyclopenta[a]phenanthren-3-ol]
TGFβ induced activity of SBE-luciferase reporter [1]: significantly inhibited | TGFβ-induced EMT morphology changes [2]: reversed | expression of E-Cad downregulated by TGFβ ([2]; 48 h): partially rescued | expression of mesenchymal genes upregulated by TGFβ (SNAIL, ZO-1, Fn-EDA, N-Cad) ([2]; 48 h): inhibited the expression of mesenchymal genes | mRNA expression of MMP2 and MMP9 induced by TGFβ ([2]; 48 h): inhibited the mRNA expression | genes associated with TGFβ-induced EMT [3]: complete suppression | inhibitory activity on TβRII in functional kinase assay [4]: did not display significant inhibitory activity
